Results on 13 molecules are retold here after PubChem BioAssay (NCI).

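Dose response: 5 concentrations. Exposure: 48 h. Format: 96-well plates. Endpoint: linear interpolation; highest concentration if not reached. TGI: total growth inhibition.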

Some test systems named below: A549 NSCLC; HCC-2998 colon; HCT-15 colon; MOLT-4 leukemia; OVCAR-4 ovarian; RXF 393 renal; SF-268 CNS; SF-295 CNS; 786-0 renal; HL-60(TB) leukemia; M14 melanoma.
Common to all, as to assay: NCI tumour cell line growth inhibition, 48 h

Regarding `Cc1ccc(S(=O)(=O)N2CCCSCC2)cc1`, the TGI in the experiment with A549 NSCLC, with HCC-2998 colon, with HCT-15 colon, in the experiment on MOLT-4 leukemia, with OVCAR-4 ovarian and in the experiment with RXF 393 renal was greater than 100 µM throughout. Besides, the TGI in the experiment on SF-268 CNS and in the experiment on SF-295 CNS was greater than 100 µM each time.
Turning to `CC(=O)OCC1OC(n2c(-c3ccc(C)cc3)cc(-c3ccccc3)c(C#N)c2=S)C(OC(C)=O)C(OC(C)=O)C1OC(C)=O` (centres undefined), the TGI in the experiment with 786-0 renal, with A549 NSCLC, in the experiment on HCC-2998 colon, in the experiment with HCT-15 colon, in the experiment on HL-60(TB) leukemia and in the experiment on M14 melanoma was greater than 100 µM each time. In addition, the TGI in the experiment with MOLT-4 leukemia, with OVCAR-4 ovarian, in the experiment on RXF 393 renal, in the experiment on SF-268 CNS and with SF-295 CNS was greater than 100 µM throughout.
As to `CC(C)(C)OC(=O)N1C(c2cccnc2)=CC[C@H]2C3CC=C(c4cccnc4)[C@@]3(C)CC[C@@H]21` (some centres undefined), the TGI in the experiment with 786-0 renal is 16.4 µM; in the experiment with A549 NSCLC, 12.2 µM; in the experiment with HCT-15 colon it was 13.8 µM; in the experiment with HL-60(TB) leukemia it was 14 µM; with M14 melanoma, 17.7 µM; in the experiment on MOLT-4 leukemia, greater than 100 µM. In addition, the TGI in the experiment with OVCAR-4 ovarian was 19.3 µM; in the experiment on RXF 393 renal it was 14.6 µM; in the experiment on SF-268 CNS, 11.5 µM; in the experiment on SF-295 CNS, 11.1 µM.
Turning to `COc1cc(CNNC(N)=S)cc(OC)c1OC`, the TGI in the experiment on 786-0 renal, in the experiment on A549 NSCLC, in the experiment on HCC-2998 colon, in the experiment on HCT-15 colon, in the experiment with HL-60(TB) leukemia and with M14 melanoma was greater than 100 µM throughout. Also, the TGI in the experiment with MOLT-4 leukemia, in the experiment on RXF 393 renal, in the experiment with SF-268 CNS and with SF-295 CNS was greater than 100 µM each time.
On to `O=C(NCCCCCCNC(=O)c1cc(-c2ccccc2)nc2ccccc12)c1cc(-c2ccccc2)nc2ccccc12`, for which the TGI in the experiment with 786-0 renal, in the experiment with A549 NSCLC, in the experiment with HCT-15 colon, in the experiment on HL-60(TB) leukemia, in the experiment on M14 melanoma and in the experiment on MOLT-4 leukemia was greater than 100 µM in each case. Further, the TGI in the experiment with OVCAR-4 ovarian, in the experiment on RXF 393 renal, with SF-268 CNS and in the experiment on SF-295 CNS was greater than 100 µM each time.
For the molecule `Cc1cn(CC2=NCC(C)N2)c(=O)[nH]c1=O` (centres undefined), the TGI with 786-0 renal, with A549 NSCLC, in the experiment on HCC-2998 colon, with HCT-15 colon, with M14 melanoma and in the experiment on MOLT-4 leukemia was greater than 100 µM each time. Also, the TGI in the experiment on RXF 393 renal, in the experiment with SF-268 CNS and in the experiment with SF-295 CNS was greater than 100 µM throughout.
Turning to `CC1=C(C(=O)Nc2ccccc2)C2(CCCCC2)C(C#N)=C(SCC(=O)Nc2ccc(Br)cc2)N1`, the TGI in the experiment with 786-0 renal worked out at 13.3 µM; with A549 NSCLC it was 22.3 µM; in the experiment on HCC-2998 colon, 10.4 µM; with HCT-15 colon, 20.2 µM; in the experiment with HL-60(TB) leukemia, 13.7 µM; with M14 melanoma, 10.9 µM. Further, the TGI in the experiment on MOLT-4 leukemia was 9 µM; in the experiment on OVCAR-4 ovarian, greater than 75.2 µM; in the experiment with RXF 393 renal it was 14.1 µM; in the experiment with SF-268 CNS, 8.74 µM; in the experiment with SF-295 CNS it was 28.9 µM.
As to `Cc1ccc(NC(=O)c2cc(S(=O)(=O)Nc3nc4ncccc4[nH]3)c(SSc3cc(Cl)c(C(=O)Nc4ccc(C)cc4)cc3S(=O)(=O)Nc3nc4ncccc4[nH]3)cc2Cl)cc1`, the TGI in the experiment on 786-0 renal, in the experiment with A549 NSCLC, with HCC-2998 colon, with HCT-15 colon, with HL-60(TB) leukemia and in the experiment with M14 melanoma was greater than 100 µM each time. In addition, the TGI in the experiment on MOLT-4 leukemia, with OVCAR-4 ovarian, in the experiment on RXF 393 renal, in the experiment with SF-268 CNS and in the experiment on SF-295 CNS was greater than 100 µM in each case.
On to `CC(=O)OCc1ccc2oc(=O)c(C(=O)Oc3ccccc3)cc2c1`, for which the TGI in the experiment on 786-0 renal is 45.8 µM; in the experiment on A549 NSCLC, greater than 100 µM; in the experiment with HCC-2998 colon, greater than 100 µM; in the experiment with HCT-15 colon it was 50 µM; with HL-60(TB) leukemia, greater than 100 µM; with M14 melanoma, greater than 100 µM. For the same molecule, the TGI in the experiment with MOLT-4 leukemia, in the experiment on OVCAR-4 ovarian, with RXF 393 renal, in the experiment on SF-268 CNS and in the experiment on SF-295 CNS was greater than 100 µM throughout.
As for `CCOC(=O)c1ccc(N=c2sc3ccccc3nc2Nc2ccc(C(=O)OCC)cc2)cc1`, the TGI was 64.8 µM with 786-0 renal; greater than 100 µM with A549 NSCLC; greater than 100 µM with HCC-2998 colon; greater than 100 µM in the experiment with HCT-15 colon; greater than 100 µM with HL-60(TB) leukemia; greater than 100 µM in the experiment with MOLT-4 leukemia. In addition, the TGI with OVCAR-4 ovarian, in the experiment on RXF 393 renal, with SF-268 CNS and in the experiment on SF-295 CNS was greater than 100 µM in each case.
Consider `N/C(=N\N=C\c1ccc2c(c1)OCCO2)NO`, for which the TGI in the experiment with A549 NSCLC is greater than 82.9 µM; with HCT-15 colon, greater than 100 µM; in the experiment on HL-60(TB) leukemia it was greater than 63.2 µM; in the experiment on MOLT-4 leukemia it was greater than 100 µM; in the experiment on OVCAR-4 ovarian, greater than 100 µM; with RXF 393 renal, greater than 100 µM. For the same molecule, the TGI with SF-268 CNS was greater than 49.1 µM; with SF-295 CNS, 57.1 µM.
For `CCOC(=O)c1c(N2CCOCC2)[nH]c(=O)c(C(c2ccco2)c2c(O)c(C(=O)OCC)c(N3CCOCC3)[nH]c2=O)c1O`, the TGI in the experiment with 786-0 renal, in the experiment with A549 NSCLC, in the experiment with HCC-2998 colon, in the experiment on HCT-15 colon, in the experiment on M14 melanoma and in the experiment with MOLT-4 leukemia was greater than 100 µM throughout. Moreover, the TGI in the experiment with OVCAR-4 ovarian, in the experiment with RXF 393 renal, with SF-268 CNS and in the experiment with SF-295 CNS was greater than 100 µM in each case.
Take `COc1ccc(-c2cc3[nH]nc(N)c3c(=O)o2)cc1`: the TGI with A549 NSCLC, in the experiment on HCC-2998 colon, in the experiment on HCT-15 colon, with HL-60(TB) leukemia, with M14 melanoma and with MOLT-4 leukemia was greater than 100 µM each time. Besides, the TGI with OVCAR-4 ovarian, in the experiment on RXF 393 renal, in the experiment on SF-268 CNS and in the experiment with SF-295 CNS was greater than 100 µM in each case.
